Laboratory results from patent US20230089557A1, “METHODS OF TREATING DLBCL USING BTK INHIBITORS AND COMBINATIONS THEREOF” (BEIGENE SWITZERLAND GMBH, priority 2020, published 2023).

Tested on: R/R non-GCB DLBCL
Test: Compound 1 monotherapy in patients with R/R non-GCB DLBCL
Assay type: in vivo, human
Conditions: for unadjusted ORR: non-GCB DLBCL
Procedure: A total of 121 patients with R/R non-GCB DLBCL were recruited in four Compound 1 treatment studies that were conducted at a similar time period. Two of the four studies were Compound 1 monotherapy (n=79) and two were Compound 1 combined with an anti-CD20 antibody therapy (n=42). Similar inclusion and exclusion criteria and response evaluation criteria were used across all studies. Fifty-six non-GCB patients were further subtyped by gene expression profiling (GEP) using the HTG EdgeSeq DLBCL Cell of Origin Assay. The expression of approximately 90 lymphoma-associated genes from the HTG GEP assay were analyzed by R package limma for correlation with response to Compound 1 treatment. Seventy-seven patient samples were tested by next-generation sequencing (NGS) with a panel of genes. Chi-square test was used to evaluate the correlation between mutations and the objective response rate (ORR).
Monotherapy schedule 1: Compound 1 was administered orally every day at 160 mg twice daily (BID) in 28-day cycles in patients with R/R non-GCB DLBCL.
Monotherapy schedule 2: Compound 1 was administered orally every day in each cycle at 160 mg BID in 28-day cycles in patients with R/R non-GCB DLBCL.
79 patients with non-GCB DLBCL were subjected to Compound 1 monotherapies (Monotherapy Schedule 1 or 2).

[1] = monotherapy 160 BID Schedule 2, NOTCH1_Mut
[2] = monotherapy 160 BID Schedule 2, NOTCH1_WT
[3] = monotherapy 160 BID Schedule 2, Non-GCB DLBCL Patients
[4] = monotherapy 160 BID Schedule 2, Non-GCB DLBCL Patients with Sequence Available
[5] = monotherapy 160 BID Schedule 2, Other (not MYD88_L265P/CD79B_Mut)
[6] = monotherapy 160 BID Schedule 2, Patients with Sequence Available
[7] = monotherapy Total (N = 79), ABC Subtype of DLBCL Patients
[8] = monotherapy Total (N = 79), CD79B ITAM_Mut
[9] = monotherapy Total (N = 79), CD79B ITAM_WT
[10] = monotherapy Total (N = 79), CD79B_Mut
[11] = monotherapy Total (N = 79), CD79B_WT
[12] = monotherapy Total (N = 79), MYD88_L265P
[13] = monotherapy Total (N = 79), MYD88_L265P/CD79B_Mut
[14] = monotherapy Total (N = 79), MYD88_WT
[15] = monotherapy Total (N = 79), NOTCH1_Mut
[16] = monotherapy Total (N = 79), NOTCH1_WT
[17] = monotherapy Total (N = 79), Non-GCB DLBCL Patients
[18] = monotherapy Total (N = 79), Non-GCB DLBCL Patients with Sequence Available
[19] = monotherapy Total (N = 79), Other (not MYD88_L265P/CD79B_Mut)
[20] = monotherapy Total (N = 79), Patients with Sequence Available

Q: Which Response/Patients (monotherapy 160 BID Schedule 2, MYD88_WT) does the source give for `C=CC(=O)N1CCC([C@@H]2CCNc3c(C(N)=O)c(-c4ccc(Oc5ccccc5)cc4)nn32)CC1` [Compound 1, (S)-7-(1-acryloylpiperidin-4-yl)-2-(4-phenoxyphenyl)-4,5,6,7-tetra-hydropyrazolo[1,5-a]pyrimidine-3-carboxamide] here?
A: 8/24

Q: What about the ORR [1] of the same compound?
A: 100.0

Q: And the Response/Patients [1]?
A: 2/2

Q: What about the “Difference in ORR (95% CI)” value (monotherapy 160 BID Schedule 2, NOTCH1_Mut vs NOTCH1_WT) of the same compound?
A: 68.8

Q: And the ORR [2]?
A: 31.3

Q: What about the Response/Patients [2] of the same compound?
A: 10/32

Q: What about the ORR [3] of the same compound?
A: 29.3

Q: What about the Response/Patients [3] of the same compound?
A: 12/41

Q: And the ORR [4]?
A: 35.3

Q: And the Response/Patients [4]?
A: 12/34

Q: What about the ORR [5] of the same compound?
A: 32.1

Q: What about the Response/Patients [5] of the same compound?
A: 9/28

Q: What about the ORR [6] of the same compound?
A: 35.3

Q: What about the Response/Patients [6] of the same compound?
A: 12/34

Q: And the ORR [7]?
A: 42.1

Q: And the Response/Patients [7]?
A: 16/38

Q: And the ORR [8]?
A: 53.3

Q: What about the Response/Patients [8] of the same compound?
A: 8/15

Q: And the “Difference in ORR (95% CI)” value (monotherapy Total (N = 79), CD79B ITAM_Mut vs CD79B ITAM_WT)?
A: 18.9

Q: And the ORR [9]?
A: 34.5

Q: What about the Response/Patients [9] of the same compound?
A: 10/29

Q: And the ORR [10]?
A: 52.9

Q: What about the Response/Patients [10] of the same compound?
A: 9/17

Q: What about the “Difference in ORR (95% CI)” value (monotherapy Total (N = 79), CD79B_Mut vs CD79B_WT) of the same compound?
A: 19.6

Q: And the ORR [11]?
A: 33.3

Q: What about the Response/Patients [11] of the same compound?
A: 9/27

Q: What about the ORR [12] of the same compound?
A: 36.4

Q: And the Response/Patients [12]?
A: 4/11

Q: And the “Difference in ORR (95% CI)” value (monotherapy Total (N = 79), MYD88_L265P vs MYD88_WT)?
A: −6.1

Q: And the ORR [13]?
A: 50.0

Q: And the Response/Patients [13]?
A: 3/6

Q: What about the “Difference in ORR (95% CI)” value (monotherapy Total (N = 79), MYD88_L265P/CD79B_Mut vs Other) of the same compound?
A: 10.5

Q: What about the ORR [14] of the same compound?
A: 42.4

Q: What about the Response/Patients [14] of the same compound?
A: 14/33

Q: What about the ORR [15] of the same compound?
A: 100.0

Q: What about the Response/Patients [15] of the same compound?
A: 3/3

Q: What about the “Difference in ORR (95% CI)” value (monotherapy Total (N = 79), NOTCH1_Mut vs NOTCH1_WT) of the same compound?
A: 63.4

Q: And the ORR [16]?
A: 36.6

Q: And the Response/Patients [16]?
A: 15/41

Q: And the ORR [17]?
A: 30.4

Q: And the Response/Patients [17]?
A: 24/79

Q: And the ORR [18]?
A: 40.9

Q: And the Response/Patients [18]?
A: 18/44

Q: What about the ORR [19] of the same compound?
A: 39.5

Q: And the Response/Patients [19]?
A: 15/38

Q: And the ORR [20]?
A: 42.2

Q: And the Response/Patients [20]?
A: 19/45

Q: What about the “unadjusted ORR” value (first of the two monotherapies (Schedule 1)) of the same compound?
A: 31.6%

Q: And the “unadjusted ORR” value (second of the two monotherapies (Schedule 2))?
A: 29.3%

Q: And the ORR (two monotherapies, NOTCH1 mutant (n=3))?
A: 100%

Q: What about the ORR (two monotherapies, non-GCB DLBCL with CD79B mutations (n=17)) of the same compound?
A: 52.9%

Q: What about the ORR (two monotherapies, other population (without CD79B mutations)) of the same compound?
A: 33.3%

Q: What about the ORR (two monotherapies, patients without NOTCH1 mutation) of the same compound?
A: 36.6%
